Experimental data as given in the supplement of paper PMC10307832.

Assays:
Experiment in all cases: relative viability (nuclei count vs DMSO), 5 days (fraction); higher = more cells survive
[1] = compound: CC1=CC(=C(N1C2=CC=C(C=C2)Cl)C)C(=O)CN3CCCCC3 [IU1-47] + Cc1cc(Nc2cc(N3CCN(C)CC3)nc(Sc3ccc(NC(=O)C4CC4)cc3)n2)n[nH]1 [Tozasertib] (partner 0.1 µM)
Procedure, shortened: (§1)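 Lung cancer cell lines, seeded in 1536-well plates, were treated the following day by pin tool with a single drug or with five library-drug doses (not always all listed) in √10 steps on top of a fixed anchor-drug dose. Cells were fixed and nuclei stained in one step after 5 days, and nuclei were counted. Relative viability is the nuclei count for treated wells divided by that for vehicle wells, reported as medians of duplicate plates.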

[2] = compound: CC1=CC(=C(N1C2=CC=C(C=C2)Cl)C)C(=O)CN3CCCCC3 [IU1-47] + O=C(c1cc(Cc2n[nH]c(=O)c3ccccc23)ccc1F)N1CCN(C(=O)C2CC2)CC1 [Olaparib] (partner 8 µM)
Procedure, shortened: as §1

[3] = compound: CC1=CC(=C(N1C2=CC=C(C=C2)Cl)C)C(=O)CN3CCCCC3 [IU1-47] + CS(=O)(=O)CCNCc1ccc(-c2ccc3ncnc(Nc4ccc(OCc5cccc(F)c5)c(Cl)c4)c3c2)o1 [Lapatinib] (partner 2 µM)
Procedure, shortened: as §1

[4] = compound: CC1=CC(=C(N1C2=CC=C(C=C2)Cl)C)C(=O)CN3CCCCC3 [IU1-47] + CC(C)C[C@H](NC(=O)[C@H](Cc1ccccc1)NC(=O)c1cnccn1)B(O)O [Bortezomib] (partner 0.002 µM)
Procedure, shortened: as §1

Row | Cell Line | relative viability ([1]; first compound 0.08 µM) | relative viability ([1]; first compound 0.253 µM) | relative viability ([1]; first compound 0.8 µM) | relative viability ([1]; first compound 2.53 µM) | relative viability ([1]; first compound 8 µM) | relative viability ([2]; first compound 0.08 µM) | relative viability ([2]; first compound 0.253 µM) | relative viability ([2]; first compound 0.8 µM) | relative viability ([2]; first compound 2.53 µM) | relative viability ([2]; first compound 8 µM) | relative viability ([3]; first compound 0.08 µM) | relative viability ([3]; first compound 0.253 µM) | relative viability ([3]; first compound 0.8 µM) | relative viability ([3]; first compound 2.53 µM) | relative viability ([3]; first compound 8 µM) | relative viability ([4]; first compound 0.08 µM) | relative viability ([4]; first compound 0.253 µM) | relative viability ([4]; first compound 0.8 µM) | relative viability ([4]; first compound 2.53 µM) | relative viability ([4]; first compound 8 µM)
1 | NCI-H522 | 0.52 | 0.523 | 0.516 | 0.489 | 0.519 | 0.724 | 0.715 | 0.525 | 0.665 | 0.668 |  |  |  |  |  |  |  |  |  | 
2 | HCC-15 | 0.385 | 0.432 | 0.354 |  | 0.227 | 0.75 | 0.722 | 0.767 | 0.711 | 0.662 | 0.897 | 0.854 | 0.999 | 0.677 | 0.798 | 1.11 | 1.05 | 1.05 | 0.928 | 0.856
3 | A-427 | 0.201 | 0.208 | 0.236 |  | 0.212 | 0.81 | 0.811 | 0.716 | 0.82 | 0.711 | 1.01 | 0.994 | 0.977 |  | 0.873 | 1.01 | 0.968 | 1.06 |  | 0.841
4 | NCI-H2228 | 0.267 | 0.303 | 0.246 | 0.198 | 0.249 | 0.738 | 0.575 | 0.596 | 0.869 | 0.504 | 0.974 | 0.885 | 1.19 | 0.833 | 0.734 | 1.25 | 0.922 | 0.949 | 1.1 | 0.932
5 | NCI-H1734 | 0.299 | 0.252 | 0.264 |  | 0.235 | 0.669 | 0.75 | 0.631 | 0.608 | 0.656 | 1.05 | 1.15 | 1.12 |  | 1.02 | 0.936 | 0.93 | 0.906 |  | 0.874
6 | PC-14 | 0.707 | 0.685 | 0.661 |  | 0.581 | 0.197 | 0.308 | 0.204 | 0.238 | 0.233 | 0.273 | 0.32 | 0.407 | 0.304 | 0.304 | 1.12 | 0.833 | 0.957 | 0.942 | 0.697
7 | NCI-H1915 | 0.472 | 0.467 | 0.499 |  | 0.359 | 0.251 | 0.267 | 0.267 | 0.252 | 0.261 | 0.992 | 1.01 | 0.976 |  | 0.999 | 1.02 | 1.05 | 1.04 |  | 1.02
8 | NCI-H1666 | 0.563 | 0.548 | 0.593 | 0.575 | 0.595 | 0.757 | 0.681 | 0.79 | 0.713 | 0.759 | 0.613 | 0.658 | 0.621 | 0.584 | 0.508 | 0.811 | 0.831 | 0.926 | 0.728 | 0.727
9 | HCC-366 | 0.15 | 0.217 | 0.132 | 0.154 | 0.112 | 0.511 | 0.328 | 0.423 | 0.312 | 0.292 | 1.04 | 0.938 | 1.26 |  | 1.15 | 1.13 | 1.02 | 1.25 |  | 0.866
10 | SK-MES-1 | 1 | 1.03 | 0.906 | 0.868 | 0.935 | 0.823 | 0.771 | 0.664 | 0.652 | 0.786 | 0.5 | 0.503 | 0.541 | 0.465 | 0.45 |  |  |  |  | 
11 | SW 1573 | 0.17 | 0.167 | 0.176 | 0.184 | 0.143 | 0.592 | 0.462 | 0.445 | 0.453 | 0.501 | 1.08 | 1.06 | 0.894 | 0.966 | 1.16 | 1.15 | 1.04 | 1.41 | 1.3 | 0.861
12 | NCI-H661 | 0.354 | 0.373 | 0.355 | 0.358 | 0.375 | 0.798 | 0.735 | 0.807 | 0.801 | 0.589 | 0.562 | 0.546 | 0.51 | 0.338 | 0.552 | 0.962 | 0.944 | 0.896 | 0.564 | 0.732
13 | PC-3 [JPC-3] | 0.913 | 0.903 | 0.922 | 0.851 | 0.773 | 1.19 | 1.2 | 1.14 | 1.11 | 1.04 | 0.47 | 0.46 | 0.509 |  | 0.461 | 0.909 | 0.805 | 0.841 |  | 0.885
14 | NCI-H1623 | 0.494 | 0.43 | 0.428 | 0.451 | 0.428 |  |  |  |  |  |  |  |  |  |  |  |  |  |  | 
15 | Calu-6 |  |  |  |  |  | 0.618 | 0.566 | 0.586 | 0.617 | 0.616 | 1.14 | 1.23 | 1.11 | 1.18 | 0.94 | 1.2 | 1.02 | 0.957 | 0.96 | 0.998
16 | LC-2-ad | 0.465 | 0.396 | 0.465 | 0.444 | 0.377 | 0.726 | 0.711 | 0.673 |  | 0.732 | 1.09 | 0.928 | 0.836 | 1.25 | 1.04 | 1.03 | 1.08 | 1.1 | 1.03 | 0.97
17 | CAL-12T | 0.408 | 0.326 | 0.34 | 0.318 | 0.287 | 0.705 | 0.726 | 0.747 | 0.797 | 0.863 | 0.683 | 0.765 | 0.744 | 0.591 | 0.763 | 1.05 | 0.946 | 0.945 | 0.972 | 0.802
18 | RERF-LC-KJ | 0.495 | 0.567 | 0.522 | 0.452 | 0.405 | 0.867 | 0.916 | 0.894 | 0.943 | 0.789 | 0.91 | 0.868 | 0.873 | 0.835 | 0.829 | 1.16 | 1.18 | 1.12 | 1.14 | 1.06
19 | NCI-H1650 | 0.399 | 0.489 | 0.363 | 0.382 | 0.264 | 0.756 | 0.797 | 0.736 | 0.968 | 0.797 | 0.755 | 0.717 | 0.935 | 0.57 | 0.351 | 0.194 | 0.171 | 0.22 | 0.203 | 0.195
